Key:
Peas (Pisum sativum) [1] = experiment: Post-emergence foliar spray, herbicidal/growth regulant response, peas; type: in vivo; conditions: Lathyrus oleraceus, 168 h, foliar spray 11.2 kg/ha, 7 days, 0=no effect, 100=complete kill, read-out: herbicidal or growth regulant response index
Description: (§1) Seeds of the plant species listed below were sown in anodised aluminium pans, 19 cm long×9.5 cm wide×5 cm deep, containing John Innes I potting compost. They were then watered and placed in a controlled environment room (22° C.; 65-85% relative humidity; 14 hours per day artificial illumination at 13,000 lux). Fourteen days after sowing, the seedlings received a foliar spray of a compound listed below, formulated as a solution in 1:1 by volume aqueous acetone. The concentration of active ingredient and volume of application were adjusted so as to be equivalent to a rate of 11.2 kg/ha in 450 liters per hectare. After seven days growth in the controlled environment room, the plants were visually assessed for any herbicidal or growth regulant response. All differences from the untreated control were scored according to an index where 0=no effect and 100=complete kill.
(§2) The product of Example 95 was tested according to the procedure of Examples 49-55.

Mustard (Sinapis alba) [2] = experiment: Post-emergence foliar spray, herbicidal/growth regulant response, mustard; type: in vivo; conditions: 168 h, foliar spray 11.2 kg/ha, 7 days, 0=no effect, 100=complete kill, read-out: herbicidal or growth regulant response index
Description: as §1, §2

[3] = test system: Linseed (Linum usitatissimum); experiment: Post-emergence foliar spray, herbicidal/growth regulant response, linseed; type: in vivo; conditions: 168 h, foliar spray 11.2 kg/ha, 7 days, 0=no effect, 100=complete kill, read-out: herbicidal or growth regulant response index
Description: as §1, §2

[4] = test system: Ryegrass (Lolium perenne); experiment: Post-emergence foliar spray, herbicidal/growth regulant response, ryegrass; type: in vivo; conditions: 168 h, foliar spray 11.2 kg/ha, 7 days, 0=no effect, 100=complete kill, read-out: herbicidal or growth regulant response index
Description: as §1, §2

[5] = test system: Sugarbeet (Beta vulgaris); experiment: Post-emergence foliar spray, herbicidal/growth regulant response, sugarbeet; type: in vivo; conditions: 168 h, foliar spray 11.2 kg/ha, 7 days, 0=no effect, 100=complete kill, read-out: herbicidal or growth regulant response index
Description: as §1, §2

Oat (Avena sativa) = experiment: Post-emergence foliar spray, herbicidal/growth regulant response, oat; type: in vivo; conditions: 168 h, foliar spray 11.2 kg/ha, 7 days, 0=no effect, 100=complete kill, read-out: herbicidal or growth regulant response index
Description: as §1, §2

[6] = test system: French beans (Phaseolus vulgaris); experiment: Post-emergence foliar spray, herbicidal/growth regulant response, French beans; type: in vivo; conditions: foliar spray 11.2 kg/ha, 7 days, 0=no effect, 100=complete kill
Description: as §1, §2

Peas (Pisum sativum) [7] = experiment: Soil incorporation (attaclay/sand dust), growth regulatory or herbicidal effects, peas; type: in vivo; conditions: Lathyrus oleraceus, 504 h, soil incorporation 26 ppm, 21 days, 0=no effect, 100=complete kill, read-out: growth regulatory or herbicidal effect score
In short: (§3)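 Dust-formulated compound incorporated in potting compost, 26 or 130 ppm w/v; seeds sown, watered, 21 d at 22° C, 65-85% RH, 14 h/day 13,000 lux. Visual growth-regulatory/herbicidal score 0 (no effect) to 100 (complete kill) vs untreated.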

Mustard (Sinapis alba) [8] = experiment: Soil incorporation (attaclay/sand dust), growth regulatory or herbicidal effects, mustard; type: in vivo; conditions: 504 h, soil incorporation 26 ppm, 21 days, 0=no effect, 100=complete kill, read-out: growth regulatory or herbicidal effect score
In short: as §3

[9] = test system: Linseed (Linum usitatissimum); experiment: Soil incorporation (attaclay/sand dust), growth regulatory or herbicidal effects, linseed; type: in vivo; conditions: 504 h, soil incorporation 26 ppm, 21 days, 0=no effect, 100=complete kill, read-out: growth regulatory or herbicidal effect score
In short: as §3

Maize (Zea mays) = experiment: Soil incorporation (attaclay/sand dust), growth regulatory or herbicidal effects, maize; type: in vivo; conditions: 504 h, soil incorporation 26 ppm, 21 days, 0=no effect, 100=complete kill, read-out: growth regulatory or herbicidal effect score
In short: as §3

Oats (Avena sativa) = experiment: Soil incorporation (attaclay/sand dust), growth regulatory or herbicidal effects, oats; type: in vivo; conditions: 504 h, soil incorporation 26 ppm, 21 days, 0=no effect, 100=complete kill, read-out: growth regulatory or herbicidal effect score
In short: as §3

[10] = test system: Ryegrass (Lolium perenne); experiment: Soil incorporation (attaclay/sand dust), growth regulatory or herbicidal effects, ryegrass; type: in vivo; conditions: 504 h, soil incorporation 26 ppm, 21 days, 0=no effect, 100=complete kill, read-out: growth regulatory or herbicidal effect score
In short: as §3

[11] = test system: Chickweed (Stellaria media); experiment: Pre-emergence soil surface spray, chickweed; type: in vivo; conditions: soil surface spray 2.8 kg/ha, 21 days, 0=no effect, 100=complete kill
Description: (§4) Seeds of the plant species listed below were sown in John Innes I potting compost in aluminium pans, 19 cm long×9.5 cm wide×5.0 cm high, one species per pan. The soil surface was then sprayed with a compound listed below, formulated as a solution in 1:1 by volume aqueous acetone except for the compound of Example 44 which was formulated as an aqueous suspension containing 1000 parts per million of the wetting agent Lissapol NX (nonylphenol/ethylene oxide condensate). Each compound was applied at a rate of 2.8 kg of active ingredient per hectare in 450 liters of spray liquid per hectare. The pans were then watered, and placed in a controlled environment room (22° C., relative humidity 65-85%, 14 hours per day artificial illumination at 17,000 lux) for 21 days. The plants were then visually assessed for any growth regulatory or herbicidal effects. All differences from an untreated control were scored on a scale from 0-100, where 0 signifies no effect and 100 signifies complete kill.

Mustard (Sinapis alba) [12] = experiment: Pre-emergence soil surface spray, mustard; type: in vivo; conditions: soil surface spray 2.8 kg/ha, 21 days, 0=no effect, 100=complete kill
Description: as §4

Cotton (Gossypium sp.) = experiment: Pre-emergence soil surface spray, cotton; type: in vivo; conditions: soil surface spray 2.8 kg/ha, 21 days, 0=no effect, 100=complete kill
Description: as §4

[13] = test system: Tomato (Lycopersicon esculentum); experiment: Pre-emergence soil surface spray, tomato; type: in vivo; conditions: soil surface spray 2.8 kg/ha, 21 days, 0=no effect, 100=complete kill
Description: as §4

[14] = test system: Fathen (Chenopodium album); experiment: Pre-emergence soil surface spray, fathen; type: in vivo; conditions: soil surface spray 2.8 kg/ha, 21 days, 0=no effect, 100=complete kill
Description: as §4

Carrot (Daucus carota) = experiment: Pre-emergence soil surface spray, carrot; type: in vivo; conditions: soil surface spray 2.8 kg/ha, 21 days, 0=no effect, 100=complete kill
Description: as §4

[15] = test system: Wheat (Triticum aestivum); experiment: Pre-emergence soil surface spray, wheat; type: in vivo; conditions: soil surface spray 2.8 kg/ha, 21 days, 0=no effect, 100=complete kill
Description: as §4

Barley (Hordeum vulgare) = experiment: Pre-emergence soil surface spray, barley; type: in vivo; conditions: soil surface spray 2.8 kg/ha, 21 days, 0=no effect, 100=complete kill
Description: as §4

Wild Oat (Avena fatua) = experiment: Pre-emergence soil surface spray, wild oat; type: in vivo; conditions: soil surface spray 2.8 kg/ha, 21 days, 0=no effect, 100=complete kill
Description: as §4

[16] = test system: Blackgrass (Alopecurus myosuroides); experiment: Pre-emergence soil surface spray, blackgrass; type: in vivo; conditions: soil surface spray 2.8 kg/ha, 21 days, 0=no effect, 100=complete kill
Description: as §4

[17] = test system: Barnyardgrass (Echinochloa crus-galli); experiment: Pre-emergence soil surface spray, barnyardgrass; type: in vivo; conditions: soil surface spray 2.8 kg/ha, 21 days, 0=no effect, 100=complete kill
Description: as §4

[18] = test system: Crabgrass (Digitaria sanguinalis); experiment: Pre-emergence soil surface spray, crabgrass; type: in vivo; conditions: soil surface spray 2.8 kg/ha, 21 days, 0=no effect, 100=complete kill
Description: as §4

[19] = test system: cucumber powdery mildew Erysiphe cichoracearum; experiment: Cucumber powdery mildew control on cucumber plants; type: in vivo; conditions: 2000 mg per liter; soil and leaves; 14 days; controls less than 5%
acetylcholinesterase = experiment: Standard test indicative of insecticidal activity: inhibition of acetylcholinesterase; type: biochemical; conditions: 100 micromolar concentration
Xanthomonas malvacearum = experiment: Bacterial growth in dextrose nutrient broth; type: cell-based; conditions: 200 ppm weight/volume; 8 days incubation at 25° C.
Description: A 1% suspension/solution of the product of Example 157 in polyethylene glycol (Carbowax 400) was added to a dextrose nutrient broth to give a concentration of 1,000 parts per million (ppm) weight/volume of medium. Dilution in test tubes was then carried out to give a concentration of 200 ppm weight/volume of medium. To 8 ml quantities of broth was added 0.2 ml of a dense broth culture of the bacterium causing black arm of cotton, Xanthomonas malvacearum. After 8 days incubation at 25° C., all the broth specimens were examined for signs of bacterial growth.

Compound | pest or weed control at 11200 g/ha (Peas (Pisum sativum) [1]) [%] | pest or weed control at 11200 g/ha (Mustard (Sinapis alba) [2]) [%] | pest or weed control at 11200 g/ha [3] [%] | pest or weed control at 11200 g/ha [4] [%] | plant injury at 11200 g/ha [5] [%] | plant injury at 11200 g/ha (Oat (Avena sativa)) [%] | herbicidal or growth regulant response index [6] | pest or weed control at 26 µg/mL (Peas (Pisum sativum) [7]) [%] | pest or weed control at 26 µg/mL (Mustard (Sinapis alba) [8]) [%] | pest or weed control at 26 µg/mL [9] [%] | plant injury at 26 µg/mL (Maize (Zea mays)) [%] | plant injury at 26 µg/mL (Oats (Avena sativa)) [%] | pest or weed control at 26 µg/mL [10] [%] | growth regulatory or herbicidal effect score [11] | growth regulatory or herbicidal effect score (Mustard (Sinapis alba) [12]) | growth regulatory or herbicidal effect score (Cotton (Gossypium sp.)) | growth regulatory or herbicidal effect score [13] | growth regulatory or herbicidal effect score [14] | growth regulatory or herbicidal effect score (Carrot (Daucus carota)) | growth regulatory or herbicidal effect score [15] | other results
CCOC(=O)C(C)N(c1c(C)cccc1Cl)S(C)(=O)=O (centres unmarked) [Example 22] | 5 | 80 | 30 | 5 | 80 | 5 | 80 | 0 | 100 | 100 | 50 | 50 | 90 | 50 | 90 | 0 | 40 | 100 | 0 | 0 | growth regulatory or herbicidal effect score (Barley (Hordeum vulgare)): 0; growth regulatory or herbicidal effect score (Wild Oat (Avena fatua)): 0; growth regulatory or herbicidal effect score [16]: 40; growth regulatory or herbicidal effect score [17]: 0; growth regulatory or herbicidal effect score [18]: 90
CCOC(=O)C(C)N(c1c(C)cccc1C)S(C)(=O)=O (centres unmarked) [Example 15] | 5 | 90 | 90 | 10 | 90 | 5 | 70 | 0 | 100 | 70 | 50 | 20 | 100 | 30 | 10 | 0 | 20 | 100 | 0 | 0 | growth regulatory or herbicidal effect score (Barley (Hordeum vulgare)): 0; growth regulatory or herbicidal effect score (Wild Oat (Avena fatua)): 5; growth regulatory or herbicidal effect score [16]: 20; growth regulatory or herbicidal effect score [17]: 40; growth regulatory or herbicidal effect score [18]: 100; fungus control, cucumber powdery mildew [19]: 82%
CNC(=O)ON=C(C)CN(c1c(C)cccc1C)S(C)(=O)=O [Example 248, N-[2-(methylcarbamoyloxyimino)propyl]-2',6'-dimethylmethanesulphonanilide] | – | – | – | – | – | – | – | – | – | – | – | – | – | – | – | – | – | – | – | – | inhibition of acetylcholinesterase (acetylcholinesterase): 30%
CS(=O)(=O)N(CC(N)=S)c1cccc(Cl)c1Cl [Example 157] | – | – | – | – | – | – | – | – | – | – | – | – | – | – | – | – | – | – | – | – | bacterial growth (Xanthomonas malvacearum): No growth occurred

Reference: patent US4309559A, “Sulphonamides useful as pesticides” (FBC Limited, priority 1977, dated 1982)
